# Experimental data: US20240400555A1 (Initial Therapeutics, Inc., priority 2023, published 2024)
# System: MV-4-11 cells
# Experiment: Cell Viability Assay in MV-4-11 Cells
# Type: cell-based
# Settings: Homo sapiens, MV4-11, 72 h
# Procedure, shortened: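 MV-4-11 cells at 7,000/well in IMDM with 10% FBS, exposed to compound for 72 h. Viability by CellTiter-Glo luminescence, normalized to DMSO as 100%, fitted with a four-parameter curve.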
row,SMILES,IC50 [µM]
1,"Cc1cccc2ccnc(N(C(=O)c3ccc(C#CC(C)(C)O)cc3F)[C@@H]3CCCNC3)c12 [Example 592, (R)-2-fluoro-4-(3-hydroxy-3-methylbut-1-yn-1-yl)-N-(8-methylisoquinolin-1-yl)-N-(piperidin-3-yl)benzamide]",0.36

# Same assay, conditions: Homo sapiens, MV4-11, 72 h, MV-4-11 cells, 72 h, Cell-Titer Glo; read-out: IC50
row,IC50 [µM],SMILES
1,0.33,"Nc1noc2ccc(-c3cc4c(N(C(=O)c5ccc(-n6nnc7cccnc76)cc5F)[C@@H]5CCCNC5)nccc4s3)cc12 [Example 420, N-[2-(3-amino-1,2-benzoxazol-5-yl)thieno[3,2-c]pyridin-4-yl]-2-fluoro-N-[(3R)-3-piperidyl]-4-(triazolo[4,5-b]pyridin-3-yl)benzamide]"
2,0.13,"COC(=O)[C@H]1CCCN1c1ccnc(Nc2ccc(C(=O)N(c3nccc4cccc(C)c34)[C@@H]3CCCNC3)c(F)c2)n1 [Example 965, methyl (2-((3-fluoro-4-((8-methylisoquinolin-1-yl)((R)-piperidin-3-yl)carbamoyl)phenyl)amino)pyrimidin-4-yl)-D-prolinate]"
3,0.064,"Cc1cc(C)c2c(N(C(=O)c3ccc(-c4nnc(C)o4)cc3F)[C@@H]3CCCNC3)nccc2c1 [Example 643, (R)—N-(6,8-dimethylisoquinolin-1-yl)-2-fluoro-4-(5-methyl-1,3,4-oxadiazol-2-yl)-N-(piperidin-3-yl)benzamide]"
4,0.2,"Nc1cc(-c2cc3c(N(C(=O)c4ccc(-n5nnc6cccnc65)cc4F)[C@@H]4CCCNC4)nccc3s2)ccn1 [Example 383, N-[2-(2-amino-4-pyridyl)thieno[3,2-c]pyridin-4-yl]-2-fluoro-N-[(3R)-3-piperidyl]-4-(triazolo[4,5-b]pyridin-3-yl)benzamide]"
5,0.24,"CCc1nnc(-c2ccc(C(=O)N(c3nccc4cccc(C)c34)[C@@H]3CCCNC3)nc2)s1 [Example 673, 5-(5-ethyl-1,3,4-thiadiazol-2-yl)-N-(8-methyl-1-isoquinolyl)-N-[(3R)-3-piperidyl]pyridine-2-carboxamide]"
6,0.086,"CC(=O)c1ccc2c(N(C(=O)c3ccc(-c4cn(C)nn4)cc3F)[C@@H]3CCCNC3)nccc2c1 [Example 610, (R)—N-(6-acetylisoquinolin-1-yl)-2-fluoro-4-(1-methyl-1H-1,2,3-triazol-4-yl)-N-(piperidin-3-yl)benzamide]"
7,0.026,O=C(c1ccc(Nc2ncccn2)cc1F)N(c1nccc2sc(-c3ccncc3)cc12)[C@@H]1CCCNC1 [Example 433]
8,1,"Cc1c(-c2ccc(C(=O)N(c3nccc4sc(-c5ccc(C(N)=O)cc5)cc34)[C@@H]3CCCNC3)c(F)c2)nnn1C [Example 819, N-[2-(4-carbamoylphenyl)thieno[3,2-c]yridine-4-yl]-4-(1,5-dimethyltriazol-4-yl)-2-fluoro-N-[(3R)-3-piperidyl]benzamide]"
9,0.61,"Cn1cc(-c2ccc(C(=O)N(c3nccc4sc(-c5ccccn5)cc34)[C@@H]3CCCNC3)c(F)c2)nn1 [Example 507, 2-fluoro-4-(1-methyltriazol-4-yl)-N-[(3R)-3-piperidyl]-N-[2-(2-pyridyl)thieno [3,2-c]pyridin-4-yl] benzamide]"
10,0.086,"COCc1nnc(-c2ccc(C(=O)N(c3nccc4scc(C)c34)[C@@H]3CCCNC3)cc2)s1 [Example 875, 4-[5-(methoxymethyl)-1,3,4-thiadiazol-2-yl]-N-(3-methylthieno[3,2-c]pyridin-4-yl)-N-[(3R)-3-piperidyl]benzamide]"
11,1.7,"Cc1cccc2ccnc(N(C(=O)N3CCCC(CCC(=O)Nc4ccc5cn[nH]c5c4)C3)[C@@H]3CCCNC3)c12 (stereo partly drawn) [Example 499, 3-(3-((1H-indazol-6-yl)amino)-3-oxopropyl)-N-(8-methylisoquinolin-1-yl)-N—((R)-piperidin-3-yl)piperidine-1-carboxamide]"
12,0.034,"Cc1cccc2ccnc(N(C(=O)c3ccc(Nc4nccc(N5[C@H](C)COC[C@@H]5C)n4)cc3F)[C@@H]3CCCNC3)c12 [Example 940, 4-((4-((3R,5S)-3,5-dimethylmorpholino)pyrimidin-2-yl)amino)-2-fluoro-N-(8-methylisoquinolin-1-yl)-N—((R)-piperidin-3-yl)benzamide]"
13,0.79,"Cc1nnc(-c2ccc(C(=O)N(c3nccc4c(C)ccc(C)c34)[C@@H]3CCCNC3)nc2)s1 [Example 877, N-(5,8-dimethyl-1-isoquinolyl)-5-(5-methyl-1,3,4-thiadiazol-2-yl)-N-[(3R)-3-piperidyl]pyridine-2-carboxamide]"
14,> 10,"Cn1cc(-c2ccc(C(=O)N(c3cc(/C=C\CCO)ccn3)[C@@H]3CCCNC3)cc2)nn1 [Example 346, N-[4-[(Z)-4-hydroxybut-1-enyl]-2-pyridyl]-4-(1-methyltriazol-4-yl)-N-[(3R)-3-piperidyl] benzamide]"
15,0.2,"Cc1cccc2ccnc(N(C(=O)c3ccc(Nc4nccc(C5CCC(O)CC5)n4)cc3F)[C@@H]3CCCNC3)c12 (stereo partly drawn) [Example 679, (R)-2-fluoro-4-((4-(4-hydroxycyclohexyl)pyrimidin-2-yl)amino)-N-(8-methylisoquinolin-1-yl)-N-(piperidin-3-yl)benzamide]"
16,0.04,"Cc1cccc2ccnc(N(C(=O)c3ccc(Nc4ncnc(N5CCCC5)n4)cc3F)[C@@H]3CCCNC3)c12 [Example 968, 2-fluoro-N-(8-methylisoquinolin-1-yl)-N-[(3R)-piperidin-3-yl]-4-{[4-(pyrrolidin-1-yl)-1,3,5-triazin-2-yl]amino}benzamide]"
17,5.3,Cn1cc(-c2ccc(C(=O)N(c3nccc4sc(-c5ccc6[nH]c(=O)[nH]c6c5)cc34)[C@@H]3CCCNC3)c(F)c2)nn1 [Example 545]
18,0.06,"Cc1cc(C)c2c(N(C(=O)c3ccc(-c4cn(C)nn4)cn3)[C@@H]3CCCNC3)nccc2c1 [Example 703, (R)—N-(6,8-dimethylisoquinolin-1-yl)-5-(1-methyl-1H-1,2,3-triazol-4-yl)-N-(piperidin-3-yl)picolinamide]"
19,0.17,"CCc1nnc(-c2ccc(C(=O)N(c3nccc4scc(C)c34)[C@@H]3CCCNC3)c(F)c2)s1 [Example 698, (R)-4-(5-ethyl-1,3,4-thiadiazol-2-yl)-2-fluoro-N-(3-methylthieno[3,2-c]pyridin-4-yl)-N-(piperidin-3-yl)benzamide]"
20,0.04,"[2H]C([2H])([2H])n1cc(-c2ccc(C(=O)N(c3nccc4cc(Cl)cc(C)c34)[C@@H]3CCCNC3)c(F)c2)nn1 [Example 893, N-(6-chloro-8-methyl-1-isoquinolyl)-2-fluoro-N-[(3R)-3-piperidyl]-4-[1-(trideuteriomethyl)triazol-4-yl]benzamide]"
21,0.72,"COc1ccc(C)c2c(N(C(=O)c3ccc(-c4nnc(C)s4)cc3)[C@@H]3CCCNC3)nccc12 [Example 871, N-(5-methoxy-8-methyl-1-isoquinolyl)-4-(5-methyl-1,3,4-thiadiazol-2-yl)-N-[(3R)-3-piperidyl]benzamide]"
22,0.084,"Cc1cn(-c2ccc(C(=O)N(c3nccc4c(F)ccc(C)c34)[C@@H]3CCCNC3)c(F)c2)nn1 [Example 655, (R)-2-fluoro-N-(5-fluoro-8-methylisoquinolin-1-yl)-4-(4-methyl-1H-1,2,3-triazol-1-yl)-N-(piperidin-3-yl)benzamide]"
23,0.79,"CNC(=O)/C=C/c1cc2c(N(C(=O)c3ccc(-n4nnc5cccnc54)cc3F)[C@@H]3CCCNC3)nccc2s1 [Example 525, 2-fluoro-N-[2-[(E)-3-(methylamino)-3-oxo-prop-1-enyl]thieno[3,2-c]pyridin-4-yl]-N-[(3R)-3-piperidyl]-4-(triazolo[4,5-b]pyridin-3-yl)benzamide]"
24,0.3,"Cc1ncc(-c2cc3c(N(C(=O)c4ccc(-n5nnc6cccnc65)cc4F)[C@@H]4CCCNC4)nccc3s2)s1 [Example 443, 2-fluoro-N-[2-(2-methylthiazol-5-yl)thieno[3,2-c]pyridin-4-yl]-N-[(3R)-3-piperidyl]-4-(triazolo[4,5-b]pyridin-3-yl)benzamide]"
25,0.25,"O=C(c1ccc(-n2nnc3cccnc32)cc1F)N(c1nccc2sc(-c3cnccn3)cc12)[C@@H]1CCCNC1 [Example 451, 2-fluoro-N-[(3R)-3-piperidyl]-N-(2-pyrazin-2-ylthieno[3,2-c]pyridin-4-yl)-4-(triazolo[4,5-b]pyridin-3-yl)benzamide]"
26,1.2,"O=C(c1ccc(Nc2nccc(N3CCCCC3)n2)cc1F)N(c1nccc2cc(F)ccc12)[C@@H]1CCCNC1 [Example 561, (R)-2-fluoro-N-(6-fluoroisoquinolin-1-yl)-4-((4-(piperidin-1-yl)pyrimidin-2-yl)amino)-N-(piperidin-3-yl)benzamide]"
27,0.079,"CCn1cc(-c2ccc(C(=O)N(c3nccc4scc(C)c34)[C@@H]3CCCNC3)c(F)c2)nn1 [Example 704, (R)-4-(1-ethyl-1H-1,2,3-triazol-4-yl)-2-fluoro-N-(3-methylthieno[3,2-c]pyridin-4-yl)-N-(piperidin-3-yl)benzamide]"
28,0.092,"Cc1cccc2ccnc(N(C(=O)c3ccc(Nc4nccc(/C=C/CO)n4)cc3F)[C@@H]3CCCNC3)c12 [Example 748, (R,E)-2-fluoro-4-((4-(3-hydroxyprop-1-en-1-yl)pyrimidin-2-yl)amino)-N-(8-methylisoquinolin-1-yl)-N-(piperidin-3-yl)benzamide]"
29,0.12,"Cc1csc2ccnc(N(C(=O)c3ccc(-c4nnn(C)c4C)cc3F)[C@@H]3CCCNC3)c12 [Example 782, (R)-4-(1,5-dimethyl-1H-1,2,3-triazol-4-yl)-2-fluoro-N-(3-methylthieno[3,2-c]pyridin-4-yl)-N-(piperidin-3-yl)benzamide]"
30,0.27,"Cc1cccc2ccnc(N(C(=O)c3ccc(C#N)c(-c4cccc(-c5cccnc5)c4)c3)[C@@H]3CCCNC3)c12 [Example 336, 4-cyano-N-(8-methyl-1-isoquinolyl)-N-[(3R)-3-piperidyl]-3-[3-(3-pyridyl)phenyl]benzamide]"

# Same assay, conditions: MV-4-11 cells, 72 h, Cell-Titer Glo; read-out: IC50
row,IC50 [µM],SMILES
1,0.17,"Cc1csc2ccnc(N(C(=O)c3ccc(Nc4ncccn4)cc3F)[C@@H]3CCCNC3)c12 [Example 931, (R)-2-fluoro-N-(3-methylthieno[3,2-c]pyridin-4-yl)-N-(piperidin-3-yl)-4-(pyrimidin-2-ylamino)benzamide]"
